≈ marks a conversion by molar mass, not a printed value.
What was measured:
Assay in all cases: Antimicrobial test, MIC90 by spread plate count
[1] = system: Staphylococcus aureus; type: cell-based; settings: ATCC9144, Staphylococcus aureus ATCC 9144
Description: (§1) A respective one of Staphylococcus aureus, Escherichia coli, Pseudomonas aeruginosa, Salmonella enteritidis, and MRSA was inoculated into a LB broth, followed by incubation in a thermostatic shaking incubator (37° C.) until an OD600 value of 1.0 was reached. The respective resultant culture was centrifuged at 3,000 g for 10 minutes, and the cell pellet thus obtained was washed with a 5 mM phosphate buffer (pH 7.4), followed by suspending with a LB broth. The resultant bacterial broths of Staphylococcus aureus, Escherichia coli, Pseudomonas aeruginosa, Salmonella enteritidis, and MRSA (each of such five bacterial suspensions contained a bacterial concentration of 1×10^4 CFU/mL) were used for the following experiment.
(§2) A suitable amount of a respective one of CQD^DA, CQD^SPD, CQD^DA-SPM, CQD^DA-SPD, CQD^DA-PUT, CQD^DA-SPM-1, and CQD^DA-SPM-2 was freeze-dried, and the respective resultant freeze-dried powder was dissolved in deionized water, followed by dilution with a 5 mM phosphate buffer (pH 7.4), so as to obtain seven CQD solutions having different concentrations (0.05-50 μg/mL).
(§3) A respective one of the five CQD solutions (i.e., CQD^DA, CQD^SPD, CQD^DA-SPM, CQD^DA-SPD, and CQD^DA-PUT solutions), the DA solutions, and the SPM solutions and a respective one of the bacterial broths of Staphylococcus aureus and Escherichia coli were mixed in a 5 mM phosphate buffer (pH 7.4), and the respective resultant mixture was incubated in a thermostatic shaking incubator (37° C.) for 1 hour, followed by addition of a suitable amount of LB broth. After incubation with shaking for 18 hours, the respective resultant culture was subjected to serial dilution with a LB broth, so as to obtain seven dilutions (10^1 to 10^7).
(§4) Thereafter, 1 μL of the respective dilution was subjected to spread plate procedure. The number of surviving bacteria was counted, and the minimum inhibitory concentration to inhibit the growth of 90% of a bacterial isolate (MIC90) was determined according to the technique well known to and routinely used by one skilled in the art.
(§5) A respective one of the four CQD solutions (i.e., CQD^DA, CQD^DA-SPM, CQD^DA-SPM-1, and CQD^DA-SPM-2 solutions) and the SPM solutions and a respective one of bacterial broths of Staphylococcus aureus, Escherichia coli, Pseudomonas aeruginosa, Salmonella enteritidis, and MRSA were mixed in a 5 mM phosphate buffer (pH 7.4), and the respective resultant mixture was subjected to antimicrobial activity analysis according to the method described in section E of this example.

[2] = system: Escherichia coli; type: cell-based; settings: BCRC10316, Escherichia coli BCRC 10316
Description: as §1, §2, §3, §4, §5

[3] = system: MRSA; type: cell-based, Methicillin-resistant Staphylococcus aureus; settings: Staphylococcus aureus, ATCC 33592 / MRSA; Table 4; MRSA ATCC 33592
Description: as §1
as §2, with “μg/mL). […]” for “μg/mL).”

[4] = system: Salmonella enteritidis; type: cell-based; settings: Salmonella enterica, ATCC 13076 / ENTERITIDIS; Table 4; Salmonella enteritidis ATCC 13076
Description: as §1, §2, §3, §4, §5

[5] = system: Pseudomonas aeruginosa; type: cell-based; settings: ATCC10145; Table 4; Pseudomonas aeruginosa ATCC 10145
Description: as §1, §2, §3, §4, §5

[6] = Table 3, 1 h in 5 mM phosphate buffer pH 7.4, then 18 h in LB broth

SMILES | MIC90 [1, 6] [µg/mL] | MIC90 [2, 6] [µg/mL] | MIC90 [3] [µg/mL] | MIC90 [4] [µg/mL] | MIC90 ([1]; Table 4) [µg/mL] | MIC90 [5] [µg/mL] | MIC90 ([2]; Table 4) [µg/mL]
NCCc1ccc(O)c(O)c1 [DA, dopamine] | 250 (≈ 1.63 mM) | 512 (≈ 3.34 mM) | – | – | – | – | –
NCCCNCCCCNCCCN [SPM, spermine] | 658 (≈ 3.25 mM) | 2350 (≈ 11.6 mM) | 1550 (≈ 7.67 mM) | 2660 (≈ 13.1 mM) | 658 (≈ 3.25 mM) | 2450 (≈ 12.1 mM) | 2350 (≈ 11.6 mM)

— US11166916B2, “Carbon quantum dots and preparation process and use thereof” (CHANG GUNG UNIVERSITY, priority 2019, dated 2021)
